# From patent publication US10660967B2, “Curcumin conjugates and methods of use thereof” (priority 2016, dated 2020)
# Like-named read-outs stand apart in the source and are kept apart here.
# Assays:
# [1] = test system: PHA-stimulated splenocytes; test: Proliferative response of PHA-stimulated splenocytes (MTT assay); type: cell-based; settings: for Stimulation Index (average ± SD): PHA 5 μg/ml, 72 hr, compounds at 5 μM (method says 10 μM), ratio of O.D. versus vehicle control
# Method: Immunomodulatory effects of the synthesized curcumin conjugates on the proliferative response of PHA-stimulated splenocytes were evaluated. The effect of curcumin and its amino acid conjugates on splenocyte viability and proliferation in response to a T cell miotgen (Phytohaemagglutinin; PHA) was evaluated using the MTT assay. Freshly prepared splenocytes (1×10^6 cells/200 μl/well) were cultured in a 96-well U-bottom microtiter plate (Nunc) in complete medium. Cells were treated with tested compounds at a final concentration of 10 μM, vehicle (DMSO) or left untreated in triplicate then incubated at 37° C. and 5% CO2. When testing the immunoregulatory effects of the compounds on splenocyte stimulation, PHA (5 μg/ml) was added to the culture media to induce T cell proliferation. The proliferative response to PHA+vehicle and vehicle alone served as controls. After 72 hr, media were removed after pelleting the cells by centrifugation and MTT salt solution (5 mg/ml) was added into each well then incubated at 37° C. for 4 h. Afterwards, formazan crystals were dissolved by adding 150 μl 10% sodium dodecyl sulfate (SDS). Absorbance was measured with a spectrophotometer at 570 nm and reference wavelength of 690 nm.
# Splenocyte stimulation index was determined as the ratio of O.D. values in tested compounds versus vehicle control cultures.
# [2] = test system: lipopolysaccharide-stimulated peritoneal macrophages; test: Production of nitric oxide by lipopolysaccharide-stimulated peritoneal macrophages (Greiss reagent); type: cell-based; set-up: Potency (%): % inhibition of nitric oxide production relative to lipopolysaccharide-stimulated macrophages: concentration or dose not given beside the values; settings: LPS-stimulated peritoneal macrophages; for Nitric oxide (nitrite) concentration, μM (average ± SD): 24 h, nitrite by Greiss reagent
# Method: The effects of the synthesized curcumin conjugates on the production of nitric oxide (μM) by lipopolysaccharide-stimulated peritoneal macrophages were evaluated.
# Two milliliters of macrophage cells were seeded in 12-well tissue culture plates in nitrite-free medium supplemented with 0.1% bovine serum albumin and incubated at 37° C. LPS±epinephrine, norepinephrine, or dopamine at […] concentrations was added to some wells. The concentrations of LPS used ranged from 0.5 to 10 ng/ml. After incubation for 24 h, supernatants were collected for measuring nitric oxide (NO) by spectrophotometry. The production of NO was determined from the accumulation of nitrite (NO2), the metabolic end product of NO metabolism, in the medium using the Greiss reagent. About equal volumes (100 μl) of sample and Greiss reagent (1:1 mixture of 1% sulfanilamide in 5% phosphoric acid, and 0.1% a-naphthylamine in distilled water) were mixed and incubated at room temperature for 15 min, and absorbance was measured at 532 nm on a spectrophotometer.
# [3] = test system: Salmonella typhi ATCC19430; test: Antimicrobial MIC, agar dilution; type: cell-based; settings: Salmonella enterica, read-out: Minimum inhibitory concentration (MIC)
# [4] = test system: HCT116 (colon) carcinoma cell line; test: Anti-tumor properties, MTT; type: cell-based; settings: Homo sapiens, HCT-116; HCT116, 100 μM, 72 h; read-out: Percentage growth of tumor cell lines treated with the tested compounds (±SD)
# Method: (§1) Anti-tumor properties of curcumin conjugates were evaluated. The synthesized curcumin-amino acid conjugates and curcumin itself were screened for their antitumor properties against human tumor cell lines utilizing HepG2 (hepatocellular), MCF7 (breast), and HCT116 (colon) carcinoma cell lines by the standard mitochondrial dependent reduction of yellow MTT [3-(4,5-dimethylthiazol-2-yl)-2,5-diphenyl-tetrazolium bromide] to purple formazan technique. Cancer cells were obtained from the Egyptian Company for Production of Vaccines, Sera and Drugs (VACSERA), Cairo, Egypt. Media, chemicals and supplies for the bio-assay were obtained from Biowest, Gibco and Lonza Companies. Cells were suspended in RPMI-1640 medium for HepG2, DMEMF12 for MCF-7, and DMEM for HCT116 in addition to 1% antibiotic-antimycotic mixture (10 […] potassium penicillin, 10 […] streptomycin sulfate and […] amphotericin B), 10% fetal bovine serum and 1% L-glutamine at 37° C., under 5% CO2 and 95% humidity. Cells were seeded at a concentration of 10×10^3 cells per well in fresh complete growth medium in 96-well tissue culture microtiter plates for 24 h. Media was aspirated, 180 μL fresh medium (without serum) were added and cells were incubated with different concentrations of sample to give a final concentration of 100 μM. 0.5% DMSO was used as a negative control and doxorubicin was used as a positive control (standard reference). Triplicate wells were prepared for each individual tested compound/dose. After 72 h of incubation, the medium was aspirated, 40 μL MTT salt (2.5 mg ml^1) were added to each well and incubated for an additional 4 h at 37° C. To stop the reaction and dissolve the formed crystals, 200 μL of 10% sodium dodecyl sulfate (SDS) in deionized water were added to each well and incubated overnight at 37° C. The absorbance was then measured at 595 nm with a reference wavelength of 620 nm. Data were collected as mean values for experiments performed in triplicates for each compound which had been measured by MTT assay.
# (§2) The percentage of cell survival was calculated according to equation (4): […]
# (§3) The IC50 was determined using Graph-Pad PRISM version-5 software. Statistical calculations for determination of the mean and standard deviation (SD) values were determined by SPSS 16 software.
# [5] = test system: HepG2 (hepatocellular) carcinoma cell line; test: Anti-tumor properties, MTT; type: cell-based; settings: Homo sapiens; HepG2, 100 μM, 72 h; read-out: Percentage growth of tumor cell lines treated with the tested compounds (±SD)
# Method: as §1, §2, §3
# [6] = test system: MCF7 (breast) carcinoma cell line; test: Anti-tumor properties, MTT; type: cell-based; settings: Homo sapiens; MCF7, 100 μM, 72 h; read-out: Percentage growth of tumor cell lines treated with the tested compounds (±SD)
# Method: as §1, §2, §3
# MCF-7 cells = test: Effect on doxorubicin induced cytotoxicity (MTT); settings: for Percentage of viable cells MCF-7 (average ± SD): 10 μM DOX in combination with 100 μM curcumin derivative, 48 hr; for viability at 100 µM: Homo sapiens, MCF7, 48 h, read-out: Percentage of viable cells MCF-7 (average ± SD)
# Method: The effects of curcumin conjugates on doxorubicin induced cytotoxicity were evaluated. In order to further examine whether curcumin derivatives can enhance conventional chemotherapeutic agents, MCF-7 cells were treated with 100 μM curcumin derivatives alone or in combination with 10 μM doxorubicin (DOX) for 48 hr. Control cultures received only medium, vehicle (DMSO), or vehicle+DOX. The percentage of viable cells was determined by MTT assay according to equation (5): […]
# [7] = test system: Staphylococcus aureus ATCC25923; test: Antimicrobial MIC, agar dilution
# [8] = test system: Streptococcus pyogenes ATCC19615; test: Antimicrobial MIC, agar dilution
# [9] = test system: Pseudomonas aeruginosa ATCC27853; test: Antimicrobial MIC, agar dilution
# [10] = test system: Candida albicans (local isolate); test: Antimicrobial MIC, agar dilution; settings: Candida albicans, read-out: Minimum inhibitory concentration (MIC)
# [11] = ATCC25923, 18 h, read-out: Minimum inhibitory concentration (MIC)
# [12] = ATCC25923, read-out: Minimum inhibitory concentration (MIC)
# [13] = ATCC19615, 18 h, read-out: Minimum inhibitory concentration (MIC)
# [14] = ATCC19615, read-out: Minimum inhibitory concentration (MIC)
# [15] = ATCC27853, 18 h, read-out: Minimum inhibitory concentration (MIC)
# [16] = ATCC27853, read-out: Minimum inhibitory concentration (MIC)
SMILES,Stimulation Index (average ± SD) [1],Potency (%): % inhibition of nitric oxide production relative to lipopolysaccharide-stimulated macrophages [2] [%],"Nitric oxide (nitrite) concentration, μM (average ± SD) [2] [µM]",MIC ([3]; 18 h) [µg/mL],MIC [3] [µM],activity at 100 µM [4] [%],activity at 100 µM [5] [%],activity at 100 µM [6] [%],Percentage of viable cells MCF-7 (average ± SD) (MCF-7 cells),viability at 100 µM (MCF-7 cells) [%],"MIC [7, 11] [µg/mL]","MIC [7, 12] [µM]","MIC [8, 13] [µg/mL]","MIC [8, 14] [µM]","MIC [9, 15] [µg/mL]","MIC [9, 16] [µM]",MIC ([10]; 18 h) [µg/mL],MIC [10] [µM],"splenocyte proliferation, fold relative to untreated control cells ([1]; in the presence of PHA, text of b265) [fold]"
"COc1cc(/C=C/C(=O)CC(=O)/C=C/c2ccc(OC(=O)[C@@H](NC(=O)OCC3c4ccccc4-c4ccccc43)C(C)C)c(OC)c2)ccc1OC(=O)[C@@H](NC(=O)OCC1c2ccccc2-c2ccccc21)C(C)C [Fmoc-Val-Cur, ((1E,6E)-3,5-dioxohepta-1,6-diene-1,7-diyl)bis(2-methoxy-4,1-phenylene) (2S,2′S)-bis(2-((((9H-fluoren-9-yl)methoxy)carbonyl)amino)-3-methylbutanoate)]",2.55 ± 0.13,12.46,23.91 ± 0.87,0.5,0.494,81.8 ± 5.8,116 ± 3.3,83.2 ± 0.8,25.15,100 ± 1.95,0.25,0.247,0.5,0.494,0.5,0.494,0.5,0.494,
"COc1cc(/C=C/C(=O)CC(=O)/C=C/c2ccc(OC(=O)[C@H](Cc3ccccc3)NC(=O)OCC3c4ccccc4-c4ccccc43)c(OC)c2)ccc1OC(=O)[C@H](Cc1ccccc1)NC(=O)OCC1c2ccccc2-c2ccccc21 [Fmoc-Phe-Cur, ((1E,6E)-3,5-dioxohepta-1,6-diene-1,7-diyl)bis(2-methoxy-4,1-phenylene) (2S,2′S)-bis(2-((((9H-fluoren-9-yl)methoxy)carbonyl)amino)-3-phenylpropanoate)]",1.78 ± 0.10,31.01,18.84 ± 0.69,0.25,0.226,110 ± 7.3,108 ± 3.6,84.7 ± 3.6,42.49 ± 2.71,98.3 ± 2.21,0.25,0.226,0.125,0.113,2,1.81,0.5,0.452,
"COc1cc(/C=C/C(=O)CC(=O)/C=C/c2ccc(OC(=O)[C@H](Cc3ccccc3)NC(=O)OCc3ccccc3)c(OC)c2)ccc1OC(=O)[C@H](Cc1ccccc1)NC(=O)OCc1ccccc1 [Cbz-Phe-Cur, ((1E,6E)-3,5-dioxohepta-1,6-diene-1,7-diyl)bis(2-methoxy-4,1-phenylene) (2S,2′S)-bis(2-(((benzyloxy)carbonyl)amino)-3-phenylpropanoate)]",2.91 ± 0.13,3.60,26.33 ± 0.52,0.125,0.134,96.4 ± 4,99.6 ± 8.7,69.3 ± 3,43.40 ± 4.74,105 ± 4.5,0.125,0.134,0.125,0.134,0.25,0.269,2,2.15,3.81
"COc1cc(/C=C/C(=O)CC(=O)/C=C/c2ccc(OC(=O)[C@H](Cc3c[nH]c4ccccc34)NC(=O)OCc3ccccc3)c(OC)c2)ccc1OC(=O)[C@H](Cc1c[nH]c2ccccc12)NC(=O)OCc1ccccc1 [Cbz-Trp-Cur, ((1E,6E)-3,5-dioxohepta-1,6-diene-1,7-diyl)bis(2-methoxy-4,1-phenylene) (2S,2′S)-bis(2-(((benzyloxy)carbonyl)amino)-3-(1H-indol-3-yl)propanoate)]",2.60 ± 0.12,11.08,24.28 ± 0.82,0.125,0.124,100 ± 7,97.6 ± 6.8,79.5 ± 0.6,45.17 ± 4.04,98.2 ± 2.96,0.125,0.124,0.5,0.496,0.25,0.248,1,0.991,
